The text below walks through data of patent publication EP4667458A1 (Kanaph Therapeutics Inc., priority 2023, dated 2024).

For the assay, the target named is T1, SOS1 (Homo sapiens, UniProt Q07889).
T1 construct: adding equal amounts of HIS-SOS1cat (160 nM; Cytoskeleton, US); His; purchased Cytoskeleton, US
T1 sequence (Q07889 564-1049 limits assumed): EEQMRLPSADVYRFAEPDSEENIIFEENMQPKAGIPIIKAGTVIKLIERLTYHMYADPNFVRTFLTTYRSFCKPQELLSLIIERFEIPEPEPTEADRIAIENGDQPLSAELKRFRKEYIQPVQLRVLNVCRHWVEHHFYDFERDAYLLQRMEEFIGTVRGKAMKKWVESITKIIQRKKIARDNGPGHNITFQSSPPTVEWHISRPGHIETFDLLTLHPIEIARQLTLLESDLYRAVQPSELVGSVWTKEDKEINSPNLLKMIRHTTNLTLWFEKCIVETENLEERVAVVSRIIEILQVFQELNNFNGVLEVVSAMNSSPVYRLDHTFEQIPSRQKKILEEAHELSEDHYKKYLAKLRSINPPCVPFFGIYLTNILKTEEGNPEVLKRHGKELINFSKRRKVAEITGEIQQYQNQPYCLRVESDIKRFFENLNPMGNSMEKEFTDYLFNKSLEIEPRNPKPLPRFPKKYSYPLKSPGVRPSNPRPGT
As to the kind of experiment: SOS-catalyzed nucleotide exchange assay (HTRF, SOS1-mediated GTP loading of KRAS G12D). Format: biochemical. The note with it: GST-KRAS G12D, HIS-SOS1cat, EDA-GTP-DY-647P1; compound 128 pM to 10 µM; read-out: SOS-catalyzed nucleotide exchange assay (IC50 range, Grade). The procedure, abridged: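 SOS1cat (HIS-tagged) preincubated 10 min at room temperature with compound (128 pM-10 µM), then GST-KRAS G12D with anti-GST terbium added; GTP loading tracked as HTRF with a DY-647P1 GTP analogue after 30 min, buffer HEPES pH 7.4. GEF-free wells for normalization; IC50 derived.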
In the case of `C[C@@H](NC(=O)c1cn(-c2ccccc2)c(=O)cn1)c1cc(N)cc(C(F)(F)F)c1` [Example 63, N-[(1R)-1-[3-amino-5-(trifluoromethyl)phenyl]ethyl]-5-oxo-4-phenyl-pyrazine-2-carboxamide], the IC50 (commonly the concentration that gives 50% inhibition) lay within 1000 to 10000 nM.

Regarding `C[C@@H](NC(=O)c1ccc(=O)n(C2CC2)n1)c1cc(N)cc(C(F)(F)F)c1` [Example 64, N-[(1R)-1-[3-amino-5-(trifluoromethyl)phenyl]ethyl]-1-cyclopropyl-6-oxo-1,6-dihydropyridazine-3-carboxamide], the IC50 fell in the range of 1000 to 10000 nM.

`C[C@@H](NC(=O)c1ccc(=O)n(C2=CCCCC2)n1)c1cc(N)cc(C(F)(F)F)c1` [Example 65, N-[(1R)-1-[3-amino-5-(trifluoromethyl)phenyl]ethyl]-1-(cyclohex-1-en-1-yl)-6-oxo-1,6-dihydropyridazine-3-carboxamide]: the IC50 is under 1000 nM.

With `CC1CC=C(n2nc(C(=O)N[C@H](C)c3cc(N)cc(C(F)(F)F)c3)ccc2=O)CC1` (stereo partly drawn) [Example 66, N-[(1R)-1-[3-amino-5-(trifluoromethyl)phenyl]ethyl]-1-(4-methylcyclohex-1-en-1-yl)-6-oxo-1,6-dihydropyridazine-3-carboxamide], the half-maximal inhibitory concentration (IC50) fell in the range of 1000 to 10000 nM.

With `C[C@@H](NC(=O)c1ccc(=O)n(C2=CCN(S(C)(=O)=O)CC2)n1)c1cc(N)cc(C(F)(F)F)c1` [Example 67, N-[(1R)-1-[3-amino-5-(trifluoromethyl)phenyl]ethyl]-1-(1-methanesulfonyl-1,2,3,6-tetrahydropyridin-4-yl)-6-oxo-1,6-dihydropyridazine-3-carboxamide], the half-maximal inhibitory concentration (IC50) was under 1000 nM.

As for `CC(=O)N1CC=C(n2nc(C(=O)N[C@H](C)c3cc(N)cc(C(F)(F)F)c3)ccc2=O)CC1` [Example 68, 1-(1-acetyl-1,2,3,6-tetrahydropyridin-4-yl)-N-[(1R)-1-[3-amino-5-(trifluoromethyl)phenyl]ethyl]-6-oxo-1,6-dihydropyridazine-3-carboxamide], the half-maximal inhibitory concentration (IC50) is under 1000 nM.

Turning to `C[C@@H](NC(=O)c1ccc(=O)n(C2=CCCN(S(C)(=O)=O)C2)n1)c1cc(N)cc(C(F)(F)F)c1` [Example 69, N-[(1R)-1-[3-amino-5-(trifluoromethyl)phenyl]ethyl]-1-(1-methanesulfonyl-1,2,5,6-tetrahydropyridin-3-yl)-6-oxo-1,6-dihydropyridazine-3-carboxamide], the IC50 fell in the range of 1000 to 10000 nM.

As for `C[C@@H](NC(=O)c1ccc(=O)n(C23CC(C2)C3)n1)c1cc(N)cc(C(F)(F)F)c1` [Example 70, N-[(1R)-1-[3-amino-5-(trifluoromethyl)phenyl]ethyl]-1-{bicyclo[1.1.1]pentan-1-yl}-6-oxo-1,6-dihydropyridazine-3-carboxamide], the half-inhibitory concentration (IC50) fell in the range of 1000 to 10000 nM.

In the case of `C[C@@H](NC(=O)c1ccc(=O)n(-c2cccc(CO)c2)c1)c1cc(N)cc(C(F)(F)F)c1` [Example 71, N-[(1R)-1-[3-amino-5-(trifluoromethyl)phenyl]ethyl]-1-[3-(hydroxymethyl)phenyl]-6-oxo-1,6-dihydropyridine-3-carboxamide], the IC50 is under 1000 nM.

For the molecule `C[C@@H](NC(=O)c1ccc(=O)n(-c2cccc(C(=O)OC(C)(C)C)c2)c1)c1cc(N)cc(C(F)(F)F)c1` [Example 72, Tert-butyl 3-(5-{[(1R)-1-[3-amino-5-(trifluoromethyl)phenyl]ethyl]carbamoyl}-2-oxo-1,2-dihydropyridin-1-yl)benzoate], the half-inhibitory concentration (IC50) was under 1000 nM.

Regarding `C[C@@H](NC(=O)c1ccc(=O)n(-c2ccncc2)c1)c1cc(N)cc(C(F)(F)F)c1` [Example 73, N-[(1R)-1-[3-amino-5-(trifluoromethyl)phenyl]ethyl]-2-oxo-2H-[1,4'-bipyridine]-5-carboxamide], the IC50 is under 1000 nM.

With `C[C@@H](NC(=O)c1ccc(=O)n(C2=CCN(S(C)(=O)=O)CC2)c1)c1cc(N)cc(C(F)(F)F)c1` [Example 74, N-[(1R)-1-[3-amino-5-(trifluoromethyl)phenyl]ethyl]-1'-methanesulfonyl-6-oxo-2',3'-dihydro-1'H,6H,6'H-[1,4'-bipyridine]-3-carboxamide], the IC50 is under 1000 nM.

With `C[C@@H](NC(=O)c1ccc(=O)n(-c2cccc(C(=O)N3CCOCC3)c2)c1)c1cc(N)cc(C(F)(F)F)c1` [Example 75, N-[(1R)-1-[3-amino-5-(trifluoromethyl)phenyl]ethyl]-1-[3-(morpholine-4-carbonyl)phenyl]-6-oxo-1,6-dihydropyridine-3-carboxamide], the IC50 is under 1000 nM.

In the case of `C[C@@H](NC(=O)c1ccc(=O)n(-c2cccc(N3CCNC3=O)c2)c1)c1cc(N)cc(C(F)(F)F)c1` [Example 85, N-[(1R)-1-[3-amino-5-(trifluoromethyl)phenyl]ethyl]-6-oxo-1-[3-(2-oxoimidazolidin-1-yl)phenyl]-1,6-dihydropyridine-3-carboxamide], the IC50 is under 1000 nM.

Consider `C[C@@H](NC(=O)c1ccc(=O)n(-c2cccc(N3CCN(C)C3=O)c2)c1)c1cc(N)cc(C(F)(F)F)c1` [Example 89, N-[(1R)-1-[3-amino-5-(trifluoromethyl)phenyl]ethyl]-1-[3-(3-methyl-2-oxo-imidazolidin-1-yl)phenyl]-6-oxo-pyridine-3-carboxamide], for which the IC50 is under 1000 nM.

For the molecule `C[C@@H](NC(=O)c1ccc(=O)n(-c2cccc(F)c2F)c1)c1cc(N)cc(C(F)(F)F)c1` [Example 94, N-[(1R)-1-[3-amino-5-(trifluoromethyl)phenyl]ethyl]-1-(2,3-difluorophenyl)-6-oxo-1,6-dihydropyridine-3-carboxamide], the IC50 is under 1000 nM.

As to `C[C@@H](NC(=O)c1ccc(=O)n(-c2ccc(F)cc2F)c1)c1cc(N)cc(C(F)(F)F)c1` [Example 95, N-[(1R)-1-[3-amino-5-(trifluoromethyl)phenyl]ethyl]-1-(2,4-difluorophenyl)-6-oxo-1,6-dihydropyridine-3-carboxamide], the IC50 is under 1000 nM.

Take `C[C@@H](NC(=O)c1ccc(=O)n(-c2cc(F)ccc2F)c1)c1cc(N)cc(C(F)(F)F)c1` [Example 96, N-[(1R)-1-[3-amino-5-(trifluoromethyl)phenyl]ethyl]-1-(2,5-difluorophenyl)-6-oxo-1,6-dihydropyridine-3-carboxamide]: the 50% inhibitory concentration (IC50) is under 1000 nM.

Take `C[C@@H](NC(=O)c1ccc(=O)n(-c2c(F)cccc2F)c1)c1cc(N)cc(C(F)(F)F)c1` [Example 97, N-[(1R)-1-[3-amino-5-(trifluoromethyl)phenyl]ethyl]-1-(2,6-difluorophenyl)-6-oxo-1,6-dihydropyridine-3-carboxamide]: the IC50 lay within 1000 to 10000 nM.

With `CC(=O)Nc1cc(-n2cc(C(=O)N[C@H](C)c3cc(N)cc(C(F)(F)F)c3)ccc2=O)ccc1F` [Example 113, 1-(3-acetamido-4-fluoro-phenyl)-N-[(1R)-1-[3-amino-5-(trifluoromethyl)phenyl]ethyl]-6-oxo-pyridine-3-carboxamide], the IC50 was under 1000 nM.

With `C[C@@H](NC(=O)c1ccc(=O)n(C2CCCC2)n1)c1cc(N)cc(C(F)(F)F)c1` [Example 115, N-[(1R)-1-[3-amino-5-(trifluoromethyl)phenyl]ethyl]-1-cyclopentyl-6-oxo-1,6-dihydropyridazine-3-carboxamide], the IC50 lay within 1000 to 10000 nM.

Consider `C[C@@H](NC(=O)c1ccc(=O)n(C2CCCCC2)n1)c1cc(N)cc(C(F)(F)F)c1` [Example 116, N-[(1R)-1-[3-amino-5-(trifluoromethyl)phenyl]ethyl]-1-cyclohexyl-6-oxo-1,6-dihydropyridazine-3-carboxamide], for which the IC50 was in the range of 1000 to 10000 nM.

In the case of `C[C@@H](NC(=O)c1ccc(=O)n(C2CCS(=O)(=O)CC2)n1)c1cc(N)cc(C(F)(F)F)c1` [Example 117, N-[(1R)-1-[3-amino-5-(trifluoromethyl)phenyl]ethyl]-1-(1,1-dioxo-1λ^6-thian-4-yl)-6-oxo-1,6-dihydropyridazine-3-carboxamide], the IC50 was in the range of 1000 to 10000 nM.

For the molecule `C[C@@H](NC(=O)c1ccc(=O)n(C2C[C@@H]3CC[C@H]2C3)n1)c1cc(N)cc(C(F)(F)F)c1` (stereo partly drawn) [Example 119, N-[(1R)-1-[3-amino-5-(trifluoromethyl)phenyl]ethyl]-1-[(1S,4R)-bicyclo[2.2.1]heptan-2-yl]-6-oxo-1,6-dihydropyridazine-3-carboxamide], the IC50 is over 10000 nM.

For `C[C@@H](NC(=O)c1ccc(=O)n(C2CCN(S(C)(=O)=O)CC2)n1)c1cc(N)cc(C(F)(F)F)c1` [Example 120, N-[(1R)-1-[3-amino-5-(trifluoromethyl)phenyl]ethyl]-1-(1-methanesulfonylpiperidin-4-yl)-6-oxo-1,6-dihydropyridazine-3-carboxamide], the IC50 lay in the range of 1000 to 10000 nM.

On to `C[C@@H](NC(=O)c1ccc(=O)n([C@@H]2CCCC[C@H]2O)n1)c1cc(N)cc(C(F)(F)F)c1` [Example 124, N-((R)-1-(3-amino-5-(trifluoromethyl)phenyl)ethyl)-1-((1R,2R)-2-hydroxycyclohexyl)-6-oxo-1,6-dihydropyridazine-3-carboxamide], for which the half-maximal inhibitory concentration (IC50) fell in the range of 1000 to 10000 nM.
